The test system of one data set is αTC1 cells. Put plainly: Na-dependent [3H]-D-aspartate uptake in αTC1 cells. Format: cell-based, mouse. As to conditions: DHK in uptake solution. The method, then: (§1) 2D: 3H-D-Aspartate uptake. Four days after plating the Na-dependent (NaCl) and Na-independent (ChCl) [3H]-D-Aspartate uptake was measured in αTC1 and βTC3 cells. Data are expressed as cpm/well/10 min and represent the mean±SE of at least three independent experiments performed in triplicate. * (NaCl vs ChCl) P<0.001; ° (DHK versus control) P<0.001.
(§2) 150.000 cells/well were plated in a 24-wells plate, and grown until confluence. After two washes in sodium-free solution (150 mM ChCl, 2 mM KCl, 1 mM CaCl2, 1 mM MgCl2, 10 mM Hepes pH 7.5), cells were incubated for 10 minutes in 200 μl of Na^+-dependent (150 mM NaCl 2 mM KCl, 1 mM CaCl2, 1 mM MgCl2, 10 mM Hepes pH 7.5) or Na^+-independent (sodium-free solution) uptake solution containing 5 μCi/ml of [^3H]D-Aspartic acid (specific activity 37 Ci/mmol; Amersham Biosciences). The amino acid uptake was stopped by washing the cells twice in ice-cold sodium-free solution. Cells were dissolved in 150 μl of SDS 1% for liquid scintillation counting. For transport inhibition, DHK was added to the uptake solution at the indicated concentrations.

For a further data set, the system named is human isolated islets. Type of data set: cell-based. As to conditions: 16.7 mM glucose; DHK (0.3 mM) or L-glutamate (0.5 mM) alone. The method, then:
FIG. 5: GLT1 CONTROLS HORMONE SECRETION IN HUMAN ISOLATED ISLETS. 48 hours after isolation, 20 human islets per tube were exposed to 3.3 or 16.7 mM glucose in the absence and the presence of either L-glutamate (0.5 mM), DHK (0.3 mM) or both L-glutamate and DHK, and insulin secretion measured. Levels of secreted insulin from islets were normalized to total insulin content. Data are expressed as % of insulin content and represent the mean±SD of two independent experiments performer in duplicate.
Insulin content and secretion were assessed on 20 islets, using a Micro-particle Enzyme Immunoassay (MEIA insulin, IMX System, Abbott Laboratories, Abbott Park, Ill., USA). Insulin secretion in response to increasing glucose concentrations, glutamate or DHK treatment was assessed by static incubation as previously described (Federici et al, 2000). Briefly, batches of 20 islets were pre-incubated in 1 ml of Krebs-Ringer buffer (KRB) supplemented with 3, 3 or 16.7 mM glucose for 30 min. Then the supernatants were replaced with Kreb's buffer containing 3, 3 or 16.7 mM glucose plus glutamate or the specific GLT1 inhibitor DHK (Sigma, St Louis, Mo., USA), as indicated. After a 30-min incubation at 37° C., the medium was removed and frozen for immunoassays. At the end of incubation, islets were lysed in lyses buffer and the total insulin content determined by immunoassay. […]

The target of another data set is T1, GLT1 (Mus musculus, UniProt P43006).
T1 construct: Since GLT1 is endogenously expressed in beta-TC3; endogenous in cells; host or cells: βTC3 mouse pancreatic beta-cell line
The data set is described as follows: Na-dependent [3H]-D-aspartate uptake in βTC3 cells. Format: cell-based. As for the experimental part:
as §1
3×10^5 βTC3 cells/well were plated onto 24-well culture plates and the Na-dependent [3H]-D-Aspartate uptake was measured in the presence or the absence of increasing DHK concentrations (0.05-0.3 mM). Data are expressed as cpm/well/10 min and represent the mean±SE of at least three independent experiments performer in triplicate. * (DHK versus controls) P<0.001.
as §2, with “For transport inhibition, DHK was added to the uptake solution at the indicated concentrations.” left out

Data set [1] can be described thus: MTT cell viability assay in βTC3 cells. Type of data set: cell-based, mouse. As to conditions: mouse; 0.05 mM DHK, five days; read-out: decrease in RGR (βTC3 viability). The method, then: 1A: Glutamate induces a dose-dependent beta-cell death. 24 hrs after plating, αTC1 and βTC3 cells were incubated for five days with the indicated glutamate concentrations and viability was assessed by MTT assay. Data are presented as % Relative Growth Rate (RGR) versus controls (100%) and represent the mean±SE of at least 7 independent experiments (n=6). * p<0.01 vs ctrl; ° p<0.01 vs Glu 5 mM in αTC1.
1C: β-cell death is prevented by pharmacological inhibition of ionotropic channels. 24 hrs after plating, αTC1 and βTC3 cells were incubated for five days with 0.025 mM CNQX (left panel) or 0.1 mM APV (right panel), in the presence or the absence of 5 mM glutamate and viability was assessed by MTT assay. Data are presented as % RGR versus control samples (100%) and represent the mean±SE of three independent experiments (n=5). * p<0.05
6B. MTT assay. 24 hrs after plating, αTC1 and βTC3 cells were incubated for five days with different DHK concentrations and viability was assessed by MTT assay. Data are presented as % RGR versus control (100%) and represent the mean±SE of three independent experiments (n=8). * (DHK versus control) p<0.05
8B: MTT assay: 24 hrs after plating, βTC3 cells were incubated for five days with the indicated ceftriaxone concentrations in the presence or absence of 5 mM glutamate and viability was assayed by MTT assay. Data are presented as % RGR versus control (100%) and represent the mean±SE of three independent experiments (n=8). *(ceftriaxone versus relative control) p<0.05.
βTC3 and αTC1 cells were derived from progeny of transgenic mice expressing SV40 large T-antigen under control of the rat insulin II 5′-flanking region or rat preproglucagon 5′-flanking region, respectively (Powers et al, 1990) and were originally provided by Douglas Hanahan (Department of Biochemistry and Biophysics, University of California, San Francisco, Calif.). βTC3 were grown in RPMI 1640 11 mM glucose, supplemented with 10% heat inactivated fetal bovine serum, 2 mM L-glutamine, and 100 IU/ml streptomycin/penicillin, as previously described (Galbiati et al, 2002). Experiments were performed between the 27 and 33 passage of cell culture.
3-(4,5-Dimethylthiazol-2-yl)-2,5-diphenyltetrazolium bromide (MTT) assay. βTC3 cells were seeded at a density of 8×10^3 cells/well onto 96-well culture plates. Cells were allowed to attach and grow for 24 h in standard medium. Then medium was replaced with fresh medium containing glutamate, DHK (Dihydrokainic Acid, Sigma Aldrich), glutamate receptor inhibitors APV and CNQX (Sigma Aldrich) or ceftriaxone (Sigma Aldrich) at the indicated concentrations. […] Coloured formazan product was determined spectrophotometrically at 540 nm. 20 islets/tube were used to assess viability in human isolated islets. Data are expressed as % Relative Growth Rate (% RGR) versus control samples.

T1 sequence (P43006 1-569 isoform P43006-2): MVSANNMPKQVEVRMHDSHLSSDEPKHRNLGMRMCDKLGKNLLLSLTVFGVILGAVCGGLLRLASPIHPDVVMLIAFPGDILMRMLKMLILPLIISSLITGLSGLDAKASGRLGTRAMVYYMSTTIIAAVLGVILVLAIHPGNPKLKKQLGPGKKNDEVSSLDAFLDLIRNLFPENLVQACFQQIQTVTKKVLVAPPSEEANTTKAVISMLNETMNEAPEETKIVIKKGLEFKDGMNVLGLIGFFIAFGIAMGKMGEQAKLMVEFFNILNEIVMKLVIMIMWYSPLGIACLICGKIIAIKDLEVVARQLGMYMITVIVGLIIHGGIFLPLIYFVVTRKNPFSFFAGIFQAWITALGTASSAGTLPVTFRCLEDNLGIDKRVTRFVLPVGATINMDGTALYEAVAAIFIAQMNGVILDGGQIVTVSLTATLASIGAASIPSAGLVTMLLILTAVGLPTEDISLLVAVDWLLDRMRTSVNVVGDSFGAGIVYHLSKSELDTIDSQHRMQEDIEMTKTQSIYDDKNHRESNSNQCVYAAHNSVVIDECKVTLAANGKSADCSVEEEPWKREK

As for `CC(C)[C@H]1CN[C@H](C(=O)O)[C@H]1CC(=O)O` [DHK, Dihydrokainic Acid], the “Na-dependent D-aspartate uptake” value with αTC1 cells was “not inhibited”. Also, the “effect on insulin secretion” value in the data set on human isolated islets was “No effect”. Moreover, the Na-dependent aspartate uptake entry on GLT1 (1 mM DHK) is “completely inhibited”. Also, the IC50 on GLT1 (DHK 0.05-0.3 mM, read-out: IC50, inhibition of Na-dependent D-aspartate uptake) was determined as 50 µM. Also, the cytotoxicity at 5 days, 0.05 mM in data set [1] came out at 6.17%.

The record behind these values is US8722343B2, “Methods and compositions for the diagnosis and treatment of diabetes” (priority 2008, dated 2014).
